Patent publication US7495023B2, “Thio semicarbazone and semicarbozone inhibitors of cysteine proteases and methods of their use” (The Regents of the University of California, priority 2002, dated 2009)
Entries after “also recorded” stand apart in the source; their conditions may differ. Like-named read-outs stand apart in the source and are kept apart here.

Key:
[1] = target: T. cruzi cathepsin L-like protease (cruzain) (Trypanosoma cruzi, UniProt P25779); assay: biochemical
Description: (§1) IC50 Determinations. Inhibitors were screened for effectiveness against the T. cruzi cathepsin L-like protease (cruzain) using purified recombinant protein. Cruzain (1 nM) was incubated with 20-50000 nM inhibitor in 100 mM sodium acetate-5 mM DTT buffer (pH 5.50, buffer A) for 5 min at room temperature. […] The increase in fluorescence (excitation at 355 nm and emission at 460 nm) was followed with an automated microtiter plate spectrofluorimeter (Molecular Devices, spectraMAX Gemini). Inhibitor stock solutions were prepared at 20 mM in DMSO, and serial dilutions were made in DMSO (0.7% DMSO in assay). Controls were performed using enzyme alone and enzyme with DMSO. IC50 values were determined graphically using inhibitor concentrations in the linear portion of a plot of inhibition versus log [I] (seven concentrations were tested, and at least two were in the linear range).

[2] = Solubility observations (cell culture medium, methanol); format: physicochemical
[3] = tested on: J774 macrophages; assay: Toxicity to mammalian host cells in the cell culture assay; format: cell-based
Description: (§2) Drug Screening in Cell Culture. Mammalian cells are routinely cultured in RPMI-1640 medium supplemented with 5-10% heat-inactivated fetal calf serum (FCS) at 37° C. in 5% CO2. The Y strain of T. cruzi is maintained by serial passage in bovine embryo skeletal muscle (BESM) cells. Infectious trypomastigotes are collected from culture supernatants. For drug assays, J774 macrophages were irradiated (5000 rad) and plated onto six-well tissue culture plates 24 h prior to infection with ˜106 trypomastigotes/well. Parasites are removed 2 h postinfection, and the medium is supplemented with the appropriate cysteine protease inhibitor (10 μM). Inhibitor stocks (10 mM) in DMSO were stored at 4° C. J774 monolayers treated with a blank containing DMSO are used as a negative control, and monolayers treated with a known trypanocidal inhibitor, 10 μM N-methyl piperazine-Phe-homoPhe-vinyl sulfone phenyl (N-Pip-F-hF-VSPh) acted as a positive control (Engel et al., J. Exp. Med., 188:725-734 (1998)). RPMI medium with or without inhibitor is replaced every 48 h. Cultures are maintained for up to 30 days and monitored daily by contrast phase microscopy. […] The comparative effectiveness of each inhibitor was estimated from plots of the duration of the intracellular cycle of T. cruzi (days) in treated vs untreated control wells.
The toxicity of compounds to mammalian host cells was also evaluated in the assay.

[4] = tested on: T. cruzi (Y strain); assay: Anti-trypanosomal cell culture assay, T. cruzi-infected J774 macrophages; format: cell-based; conditions: for effect on T. cruzi in cell culture (trypanocidal / trypanostatic / inactive): inhibitor 10 μM, cultures up to 30 days
Description: as §2, with “Parasites are removed 2 h postinfection, and the medium is supplemented with the appropriate cysteine protease inhibitor (10 μM).” left out

[5] = target: cruzain (Trypanosoma cruzi, UniProt P25779); format: biochemical; conditions: incubation 90 s to 24 h
Sequence of cruzain (P25779 123-467): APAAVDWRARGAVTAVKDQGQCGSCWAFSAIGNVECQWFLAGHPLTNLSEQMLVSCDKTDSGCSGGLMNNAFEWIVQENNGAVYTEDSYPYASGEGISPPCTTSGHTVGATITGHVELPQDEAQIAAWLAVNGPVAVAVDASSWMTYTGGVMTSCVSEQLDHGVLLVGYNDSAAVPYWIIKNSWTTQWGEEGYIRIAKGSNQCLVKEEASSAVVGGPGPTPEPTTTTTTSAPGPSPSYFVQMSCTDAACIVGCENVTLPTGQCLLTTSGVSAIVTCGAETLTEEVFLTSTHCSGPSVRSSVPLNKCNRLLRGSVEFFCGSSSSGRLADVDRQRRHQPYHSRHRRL
Description: The time dependence of inhibition was determined by incubating cruzain with inhibitors, DMSO, or enzyme alone at room temperature for time points between 90 s and 24 h. The enzymatic activity was determined as above.
A known irreversible inhibitor, K002 (morpholino urea-Phe-homoPhe-vinyl sulfone benzene; Axys Pharmaceuticals Inc., South San Francisco, Calif.), and a known reversible covalent inhibitor, leupeptin, were used as controls for the thio semicarbazones.

[6] = tested on: T. cruzi parasites; assay: WHO screen against T. cruzi parasites; format: cell-based
Description: (§3) Thio semicarbazones have been tested against falcipain 2, which is the cysteine protease of parasites related to malaria. […] The WHO (World Health Organization) helped to screen compound 1i against a couple of parasite strains. It has activity against T. cruzi and P. falciparum parasites.

[7] = tested on: parasite P. falciparum; assay: WHO screen against P. falciparum parasites; format: cell-based
Description: as §3

[8] = target: T1, falcipain-2 (Plasmodium falciparum, UniProt Q8I6U4); assay: Inhibition of falcipain-2; format: biochemical
T1 sequence (Q8I6U4 244-484): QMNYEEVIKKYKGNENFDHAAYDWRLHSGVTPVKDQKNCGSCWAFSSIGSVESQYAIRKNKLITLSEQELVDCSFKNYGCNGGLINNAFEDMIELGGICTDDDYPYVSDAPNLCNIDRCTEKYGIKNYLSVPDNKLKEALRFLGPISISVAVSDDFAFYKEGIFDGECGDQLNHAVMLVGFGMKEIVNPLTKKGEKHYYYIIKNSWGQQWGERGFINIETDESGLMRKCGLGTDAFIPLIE
Description: as §3

[9] = target: human cathepsin B (Homo sapiens, UniProt P07858); assay: Inhibition of cathepsin B protease activity; format: biochemical
Description: as §1, with “protein.” for “protein. Cruzain (1 nM) was incubated with 20-50000 nM inhibitor in 100 mM sodium acetate-5 mM DTT buffer (pH 5.50, buffer A) for 5 min at room temperature.”
Enzyme assays to test the ability of thio semicarbazone compounds to inhibit the cysteine protease activity of rhodesain and cathepsin B were carried out as described for assays to test inhibition of protease activity by cruzain. In these assays, inhibition of cruzain is included as a positive control.

[10] = tested on: T. cruzi; conditions: mouse model; cited from earlier work
[11] = tested on: T. cruzi; conditions: cited from earlier work
[12] = 5 min incubation, room temperature, pH 5.50, read-out: IC50 against cruzain

Sequence of T. cruzi cathepsin L-like protease (cruzain) (P25779 123-467): as the sequence (P25779 123-467) above

## NC(=S)NN=Cc1ccc(-c2ccc(Cl)cc2)o1 [Compound 1b, 5-(4-Chlorophenyl)-2-furancarboxaldehyde Thio Semicarbazone]
[1]; [12]
  IC50: < 300 nM
[2]
  solubility in the cell culture medium, in words: solubility (1b) appears to be a problem

## COc1ccccc1-c1ccc(C=NNC(N)=S)o1 [Compound 1c, 5-(2-Methoxyphenyl)-2-furancarboxaldehyde Thio Semicarbazone]
[3]
  toxicity to host cells, in words: Toxicity
other
  melting point: 209.5 to 211.1 °C
[1]
  IC50: < 300 nM

## NC(=S)NN=Cc1ccc(-c2cccc(Cl)c2)o1 [Compound 1e, 5-(3-Chlorophenyl)-2-furancarboxaldehyde Thio Semicarbazone]
[3]
  concentration at which toxicity to host cells was observed: 10 µM
other
  melting point: 198.8 to 199.8 °C
[1]; [12]
  IC50: < 300 nM
[4]; compound at 5 μM, untreated infected cells die within 5 days
  survival of infected host cells: 10 days
[4]
  effect on T. cruzi in cell culture (trypanocidal / trypanostatic / inactive): trypanostatic

## NC(=S)NN=Cc1ccc(-c2ccc(Br)cc2)o1 [Compound 1f, 5-(4-Bromophenyl)-2-furancarboxaldehyde Thio Semicarbazone]
[1]; [12]
  IC50: < 300 nM
[2]
  solubility in the cell culture medium, in words: crystallized in the cell culture medium
[4]; inhibitor 10 μM (method), untreated infected cells die within 5 days
  survival of infected host cells / duration of trypanostatic effect: 14 days
[4]
  effect on T. cruzi in cell culture (trypanocidal / trypanostatic / inactive): trypanostatic

## CCC(=NNC(N)=S)c1cccc(Br)c1 [Compound 1i, 3′-Bromopropiophenone Thio Semicarbazone]
[5]
  time dependence of cruzain inhibition: time-dependent
[3]
  toxicity to host cells, in words: without toxicity to host cells
[6]
  activity against T. cruzi parasites: has activity
[2]
  solubility in the cell culture medium, in words: without toxicity to host cells or solubility problems
[7]; Plasmodium falciparum
  IC50: 16000 to 32000 nM
[7]; WHO screen
  activity against P. falciparum parasites: has activity
[4]
  effect on T. cruzi in cell culture (trypanocidal / trypanostatic / inactive): significant trypanocidal activity; also recorded: cured of trypanosomal infection; also recorded: trypanocidal effect
[4]; treated for three weeks, then compound removed, experiment terminated
  time postinfection that cells stayed healthy and parasite-free: ≥ 6.5 weeks

## COc1ccc2ccccc2c1C=NNC(N)=S [Compound 1n, 2-Methoxy-1-naphthaldehyde Thio Semicarbazone]
[3]
  toxicity to host cells, in words: Toxicity
[1]; [12]
  IC50: 560 nM

## CCC(=NNC(N)=S)c1ccc(Cl)c(Cl)c1 [Compound 2i, 3′,4′-Dichloropropiophenone Thio Semicarbazone]
[8]
  IC50: 150 nM
[1]
  cruzain inhibitory activity, in words: better IC50 values than 1i
[1]; [12]
  IC50: 20 nM
[1]; compared to 1i
  increase in activity over 1i (cruzain): ~5 fold

## CC(=NNC(N)=S)c1cccc(Br)c1 [Compound 3b, 3′-Bromoacetophenone Thio Semicarbazone]
[5]
  time dependence of cruzain inhibition: time-dependent
[1]; [12]
  IC50: 200 nM
[4]
  effect on T. cruzi in cell culture (trypanocidal / trypanostatic / inactive): trypanocidal effect

## CC1CN(C(N)=S)N=C1c1cccc(Br)c1 (stereo not drawn) [Compound 4b, 3-(3-Bromophenyl)-4-methyl-2-pyrazoline-1-thiocarboxamide]
[5]
  time dependence of cruzain inhibition: time-dependent
other
  melting point: 107.4 to 109.9 °C
[1]
  cruzain inhibitory activity, in words: better than that of 1i
[1]; [12]
  IC50: 80 nM
[4]
  effect on T. cruzi in cell culture (trypanocidal / trypanostatic / inactive): trypanocidal effect

## CC1CN(C(N)=S)N=C1c1ccc(Cl)c(Cl)c1 (stereo not drawn) [Compound 4f, 3-(3,4-Dichlorophenyl)-4-methyl-2-pyrazoline-1-thiocarboxamide]
[1]
  cruzain inhibitory activity, in words: better than that of 1i
[2]; methanol
  solubility in methanol, in words: poorest solubility in methanol
[4]
  effect on T. cruzi in cell culture (trypanocidal / trypanostatic / inactive): trypanostatic

## O=C(N[C@H](/C=C/S(=O)(=O)c1ccccc1)CCc1ccccc1)[C@H](Cc1ccccc1)NC(=O)N1CCOCC1 [Compound K002, morpholino urea-Phe-homoPhe-vinyl sulfone benzene]
[9]; read-out: cathepsin B IC50 (μM) 5 min preincubation, 5 min preincubation
  IC50: 0.5 µM
[9]; read-out: cathepsin B IC50 (μM) 30 min preincubation, 30 min preincubation
  IC50: < 0.1 µM
[5]
  time dependence of cruzain inhibition: rapidly time-dependent

## CN1CCN(C(=O)NC(Cc2ccccc2)C(=O)NC(C=CS(=O)(=O)c2ccccc2)CCc2ccccc2)CC1 (stereo not drawn) [N-Pip-F-hF-VSPh, N-methyl piperazine-Phe-homoPhe-vinyl sulfone phenyl, reference compound]
[10]
  outcome of treatment of T. cruzi-infected mice: resulted in a cure
[4]
  effect on T. cruzi in cell culture (trypanocidal / trypanostatic / inactive): unable to survive

## benzyloxy-carbonyl-L-phenylalanyl L-alanine fluoromethyl ketone [Z-Phe-Ala-FMK]
[11]
  effect on replication and differentiation of T. cruzi in cultures: blocks replication and differentiation of the parasite
